The nature of the series: physchem. The format is physicochemical. The following applies: water.

≈ marks a conversion by molar mass, not a printed value.

What is called solubility is how much of the substance goes into solution per volume. The low end stands for little dissolved substance, the high end for much dissolved substance.

`CC[N+]1=C(/C=C/C=C2/N(CCCCCC(=O)N[C@H](Cc3c[nH]cn3)C(=O)O)c3ccc(S(=O)(=O)[O-])cc3C2(C)C)C(C)(C)c2cc(S(=O)(=O)NCCCC(=O)OCCN(C)C)ccc21` [compound (E), Cy3-His-4-amino-3-butyric acid (N,N-dimethylamino) ethylester] yielded a solubility of roughly 240 mM (≈ 222 mg/mL).

The record behind these values is patent US20120231972A1, “Probe Compound for Detecting and Isolating Enzymes and Means and Methods Using the Same” (priority 2009, published 2012).
